A melting point compilation (Tetko et al.; mined from patent text by program, amines drawn as free bases though some values may be those of a salt)

melting point [°C] | SMILES
131 to 133 | COC(=O)c1cocc1-n1c(OC)nn(C)c1=O
204 | CC(Cl)C(=O)Nc1ccccc1C(=O)CC(=O)Nc1nccs1 (configuration not stated)
99 to 100 | COCOc1ccccc1-c1cc(-c2cccc(CN=[N+]=[N-])c2)c(C#N)c(N)n1
75 | O=Cc1c2c(cn1Cc1ccccc1)OCCO2
84.5 to 86.1 | Nc1nc2ccccc2c2c1nc(-c1ccccc1)n2CCCCNC(=O)c1cccnc1
153 to 156 | O=C(O)c1ccc(OCC2CCCC2Nc2ccc(Cl)cc2)cc1 (configuration not stated)
208 to 209 | Cc1nn(-c2ccc(Cl)c3c2CC(C)O3)c(=O)[nH]1 (configuration not stated)
239 to 240 | O=C(O)c1cccc(-c2nnc(-c3ccc(C(F)(F)F)cc3)o2)c1
85 to 87 | CC(C(=O)O)c1ccc(Sc2nccs2)cc1 (configuration not stated)
118 | CCN(CC)c1nc2cc(C)nn2c2ccncc12
70 | CC(C)C(C(=O)OCc1nn(Cc2ccccc2)c(=O)o1)c1ccc(Cl)cc1 (configuration not stated)
192 to 193 | CC(C)(C)OC(=O)N1CCN(CCSc2nc3cc(F)c(F)cc3[nH]2)CC1
180 to 183 | COc1ccc(C(=O)Nc2ccc(F)c(F)c2)cc1NC(=S)Nc1cc(Cl)cc(Cl)c1
130 to 132 | O=C1NC(=O)C(Cc2ccc(N3CCC(NC[C@H](O)c4ccc5nnnn5c4)CC3)cc2)S1 (some centres not stated)
104 to 105 | CS(=O)(=O)N(Cc1cccnc1)c1ccccc1
174 to 175 | CCCC[C@@H](NC(=O)[C@H](Cc1ccc(O)cc1)NC(=O)OC(C)(C)C)C(=O)NCC(=O)O
57 to 58 | COC(=O)CCC(CCCCNS(=O)(=O)c1ccc(Cl)cc1)CCOc1cccnc1 (configuration not stated)
147 to 148 | CC(=O)Nc1c(Cl)cnn(C)c1=O
68 | Nc1cccc(OCc2ccccc2)c1N
67 to 70 | C/C(N)=C/C(=O)OCCOC/C(C)=C/c1ccc(Cc2cccnc2)cc1
71 | COC(=O)c1ccc(C(O)c2cc3cc(Cl)ccc3n2S(=O)(=O)c2ccc(C(C)C)cc2)cc1 (configuration not stated)
145 to 147 | O=c1c2cc(F)c(F)cc2n(CCF)c(=O)n1OCc1ccccc1
140 to 142 | CC(=O)OCC1OC(n2c(Cl)nc3cc(Br)c(Br)cc32)C(OC(C)=O)C1OC(C)=O (configuration not stated)

melting point [°C] | SMILES
173 to 175 | Cc1cnc2ccc(-c3cccnc3)nn12
170 to 172 | CN1CCCC1CCNC(=O)Cn1c(-c2ccc(Cl)cc2)nc2cccnc21 (configuration not stated)
212 | Cc1nc2cc(N)c(N)cc2n1C
193 to 195 | CCOC(=O)/C=C/c1ccc(-c2ccc(O)c(C34CC5CC(CC(C5)C3)C4)c2)c(C)c1
141 to 142 | COc1nc(SC)cnc1NS(=O)(=O)c1cccc(Cl)c1Cl
137 | COc1nc(NS(=O)(=O)c2ccccc2Cl)nc(OC)n1
119 to 120 | COc1ccc2[nH]cc(CC(=O)N3CCN(c4ccc(N)cc4)CC3)c2c1
166 to 168 | O=C(NCc1ccc(Cl)cc1)c1cnc2cc(CCCO)ccc2c1O
201 to 204 | COc1ccc(Cc2nc3c(N)nc4ccccc4c3n2CCOc2ccccc2)cc1
186 to 190 | Clc1cc(NC23CC4CC(CC(C4)C2)C3)nc(N2CCCC2)n1
200 to 201 | COc1ccc(-c2cccc(-c3nc(=O)c4ccccc4s3)n2)cc1
180 to 182 | CC1=C(C(=O)OCCC#N)C(c2ccccc2Cl)C(c2nnco2)=C(C)N1 (configuration not stated)
113 to 115 | O=C(O)C(CCN1C(=O)c2ccccc2C1=O)Oc1c(Br)cc(-c2ccc(-c3c(Cc4ccccc4)sc4ccccc34)cc2)cc1Br (configuration not stated)
236 to 238 | Nc1c(NCCSCc2csc(CN3CCCCC3)c2)c(=O)c1=O
121 to 124 | CCCc1cc2cc(O)c(F)cc2c(Oc2ccc(/C=C/C(N)=O)cc2)c1-c1ccccc1
159 to 162 | Cc1cc(-c2ccc(S(C)(=O)=O)cc2)n(-c2ccc(F)cc2)c1C
198 to 200 | N#Cc1cc(C(=O)N=C(N)N)cc(-n2cccc2)c1
145 to 146 | CCCC(C(=O)O)C1(c2ccccc2)CC(O)=C(Sc2ccccc2C(C)C)C(=O)O1 (configuration not stated)
183 to 185 | OCc1ccc2c(c1)ncn2-c1cccc(-c2cccnc2)c1
107 to 109 | OCc1ccc2c(c1)ncn2-c1cccc(Br)c1
107 to 108 | CCOC(=O)c1cn(-c2nc(SC(C)C)nc(C(F)(F)F)c2I)nc1C(F)(F)F
126 to 127 | CN1CCCC(n2nc(-c3c(-c4ccccc4)nn4ccccc34)ccc2=O)C1 (configuration not stated)
98 to 99 | CCCc1c(C)nc2ccc(C(=O)OC)cn2c1=O

melting point [°C] | SMILES
234 to 235 | Cc1cc(C)c2ncc(C(=O)O)c(-c3ccccc3Cl)c2c1
260 to 262 | Cc1cc(C#N)cc(C)c1Oc1nc(Nc2ccc(C#N)cc2)nc(C)c1Br
255 to 257 | CCn1nc(-c2ccccc2)c(C(=O)O)c(Nc2cccnc2)c1=O
154 to 156 | CCN(CC)c1nc(-c2ccc(OC)cc2)nc2sc(C#N)c(C)c12
174 to 175 | CCCC(=O)Nc1ccc(-c2ccncc2)cc1
120 to 122 | COc1cc(N2CCCCC2)c(Cl)cc1CC(=O)O
150 to 153 | CCOC(Cn1cncn1)(c1ccc(F)cc1F)C(F)(F)S(=O)(=O)CCO (configuration not stated)
229 to 231 | CSc1nc(=O)c2cccc3c2n1-c1cc(C(F)(F)F)ccc1S3
> 360 | Nc1ccc2c3c(cccc13)C(=O)N(O)C2=O
127 to 129 | CCOC(=O)CNC(=O)CN(C(=O)c1ccc(Cl)cc1)c1c(C)cccc1C
149 to 151 | CN(C)CC(O)COc1ccccc1CCCCc1ccccc1C(N)=O (configuration not stated)
245 to 248 | CCn1ccc(-c2sc(NC(=O)c3ccncc3)nc2-c2ccco2)cc1=O
74 to 76 | O=C(c1cccs1)c1cnn2c(-c3ccc(F)c(Br)c3)ccnc12
156 to 159 | Fc1c(F)c(F)c(CSc2nc3cnccc3[nH]2)c(F)c1F
168 to 169 | COC(=O)c1cccc(-c2nc(COc3ccc(C=O)cc3OC)c(C)o2)c1
> 300 | CN1CCN(C2=Nc3ccc(Cl)cc3S(=O)(=O)N2)CC1
156 to 157 | CC(C)(C)OC(=O)N1CC(COS(C)(=O)=O)c2c1cc(OCc1ccccc1)c1ncccc21 (configuration not stated)
184 to 187 | CS(=O)(=O)Nc1ccc(CCN2CCc3ccc(NS(C)(=O)=O)cc3CC2)cc1
250 to 252 | COc1cc(N=C2SC(=CC(=O)O)C(=O)N2c2cc(OC)c(OC)c(OC)c2)cc(OC)c1OC
> 260 | CC(C)c1sc2ncnc(N)c2c1-c1ccc([N+](=O)[O-])cc1
192 to 195 | CCN1CC(c2ccccc2)=C(O)C1=O
78 to 80 | O=[N+]([O-])c1cnc(Cl)nc1

SMILES | melting point [°C]
CC(=O)C1CCC2C3CCC4CC(O)C(Br)CC4(C)C3CCC12C (configuration not stated) | 171 to 175
O=C(NCCOC1CCCCO1)c1cc([N+](=O)[O-])cc([N+](=O)[O-])c1N(CCO)CCBr (configuration not stated) | 121 to 123
C=C(c1cn(-c2c(Cl)cc(C(F)(F)F)cc2Cl)nc1C#N)C(F)(F)C(F)(F)F | 107 to 108
CC12CCC3C(CC=C4CC(C(=O)CBr)CCC43C)C1CCC2=O (configuration not stated) | 150
